Test results: patent publication US20070141641A1, “Compositions & methods for reformulating biological membranes for arrays” (priority 2003, published 2007)

What was measured:
[1] = target: T1, muscarinic receptor subtype 1 (M1) (Homo sapiens, UniProt P11229); test: GPCR membrane microarray, labeled-ligand cocktail binding with or without telenzepine, M1 microspots; conditions: 1 μM telenzepin; cocktail with 2 nM Cy3-B-telenzepine; FIG. 1B
T1 sequence (P11229 1-460): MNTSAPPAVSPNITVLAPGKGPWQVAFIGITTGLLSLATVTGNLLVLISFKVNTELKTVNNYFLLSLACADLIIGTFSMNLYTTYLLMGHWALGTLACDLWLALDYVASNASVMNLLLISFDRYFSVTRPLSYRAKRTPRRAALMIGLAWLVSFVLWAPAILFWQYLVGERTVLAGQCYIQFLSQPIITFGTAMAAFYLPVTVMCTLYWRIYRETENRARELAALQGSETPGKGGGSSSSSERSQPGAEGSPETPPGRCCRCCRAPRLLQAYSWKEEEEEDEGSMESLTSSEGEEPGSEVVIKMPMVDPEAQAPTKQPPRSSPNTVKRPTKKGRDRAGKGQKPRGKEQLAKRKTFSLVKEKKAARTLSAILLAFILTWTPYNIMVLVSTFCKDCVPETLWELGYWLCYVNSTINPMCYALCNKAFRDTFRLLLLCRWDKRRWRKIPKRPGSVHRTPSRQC
Source text: (§1) FIG. 1A and FIG. 1B are false-color fluorescence images of two membrane microarrays made using six different GPCR-membrane preparations (from left to right, they are HEK cell membrane as control, muscarinic receptor subtype 1 (M1), motilin receptor (MOTR), neurotensin receptor subtype 1 (NTR1), opioid receptor like subtype 1 (ORL1) and delta 2 opioid receptor (OP1)).
(§2) FIGS. 1A & 1B are false-color fluorescence image of a membrane microarray made using six different GPCR-membrane preparations. The images, in Cy5 to Cy3 ratio, are taken after the array is assayed with a binding buffered solution containing a mixture or cocktail solution of labeled ligands. […] FIGS. 1A and 1B are, respectively, in the absence and presence of 1 μM telenzepin. Before array fabrication, all receptor membranes obtained from commercial vendors are re-formulated using a standardized ink containing: ˜20 mM Tris-HCl, pH 7.4, ˜10 mM MgCl2, ˜10% sucrose, 5% glycerol, 0.5% BSA, total membrane proteins in the range of 1 to 3 mg/ml.

[2] = system: MOTR, NTR1, ORL1, OP1 receptor microspots; test: GPCR membrane microarray, labeled-ligand cocktail binding with or without telenzepine, other receptor microspots; conditions: 1 μM telenzepin, FIG. 1B
Source text: as §1, §2

inhibition of labeled ligand binding to other receptor microspots [2]: not any other receptor microspots
SMILES: Cc1scc2c1N(C(=O)CN1CCN(C)CC1)c1ccccc1NC2=O [telenzepine]
inhibition of labeled ligand binding to M1 microspots [1]: specifically inhibits the binding of labeled ligand to M1 microspots
